Data published in patent US20190055212A1, “HISTONE DEMETHYLASE INHIBITORS” (priority 2016, published 2019).

Biological target: KDM5B enzyme (Homo sapiens, UniProt Q9UGL1)
Assay: KDM5B HTRF (TR-FRET) demethylase inhibition assay
Type: biochemical
Conditions: 1.2 nM KDM5B, 30 nM Biotin-H3K4Me3 1-21 substrate, 10 point dose-response
Method: Ten point dose-response curves for compounds shown in Table 1 were determined using a homogeneous time resolved fluorescence (HTRF) assay (Reaction Biology Corp, Malvern, Pa.). This assay combines fluorescence resonance energy transfer (FRET) with time resolve (TR) measurements (TR-FRET). The KDM5B α-ketoglutarate-dependent demethylase activity is calculated by measuring demethylation of a biotin labeled histone tri-methylated H3K4 substrate using an europium-cryptate (Eu)-labeled antibody donor specific for dimethylated histone H3K4 and a Streptavidin-XL665 acceptor that binds to the biotin group of substrate, and detecting FRET by exciting the reaction mixture at 320 nm and reading dual emissions at 615 nm and 665 nm.
Briefly, compounds disclosed herein were solubilized in DMSO and a series of 10, three-fold serial dilutions were made for each compound in 100% DMSO. The initial starting concentration for the serial dilutions of each compound was 10 μM or 100 μM. Control samples lacking compound, KDM5B enzyme or various reaction components also were prepared and processed in parallel with compound test samples.
An aliquot of each serial dilution of test compound was added to a 384 well plate (Corning Cat #3572) containing 1.2 nM KDM5B enzyme suspended in 50 mM Hepes, pH7.5, 50 mM NaCl, 0.01% Tween 20, 0.1% BSA, and 1% DMSO (final concentrations) in a 10 microliter reaction volume using a LABCYTE ECHO liquid handler. The samples were mixed, subjected to centrifugation and the plate was pre-incubated at room temperature for 15 min, to which 30 nM Biotin-H3K4Me3 1-21 substrate (Anaspec Cat #64192), 20 μM […] and 20 μM α-ketoglutarate co-factors, and 100 μM Ascorbate were added to initiate the enzymatic reaction. The reaction mixture was incubated at room temperature for 45 minutes. A 10 μl aliquot of a detection mixture of Eu-labeled anti-histone H3K4Me2 antibody (CisBIO Cat #610AXLB) and Streptavidin-XL665 (CisBIO Cat #610 SAXLB) in 200 mM potassium fluoride and 10 mM EDTA was added and kinetic measurements were read at 5 minute intervals for a period of 30 minutes using an Envision Multiplate Reader (PerkinElmer Model 2102; excitation at 320 nm and emmission reads at 615 nm and 665 nm). The IC50 value for each compound was determined from the 665/615 ratio obtained for each 10 point dose-response curve using GraphPad Prism 4 software with a sigmodial dose response. Key: “A”≤100 nM; “B”>100 nM-≤500 nM; “C”>500 nM and N/D is not determined.

Sequence of KDM5B enzyme (Q9UGL1 whole entry): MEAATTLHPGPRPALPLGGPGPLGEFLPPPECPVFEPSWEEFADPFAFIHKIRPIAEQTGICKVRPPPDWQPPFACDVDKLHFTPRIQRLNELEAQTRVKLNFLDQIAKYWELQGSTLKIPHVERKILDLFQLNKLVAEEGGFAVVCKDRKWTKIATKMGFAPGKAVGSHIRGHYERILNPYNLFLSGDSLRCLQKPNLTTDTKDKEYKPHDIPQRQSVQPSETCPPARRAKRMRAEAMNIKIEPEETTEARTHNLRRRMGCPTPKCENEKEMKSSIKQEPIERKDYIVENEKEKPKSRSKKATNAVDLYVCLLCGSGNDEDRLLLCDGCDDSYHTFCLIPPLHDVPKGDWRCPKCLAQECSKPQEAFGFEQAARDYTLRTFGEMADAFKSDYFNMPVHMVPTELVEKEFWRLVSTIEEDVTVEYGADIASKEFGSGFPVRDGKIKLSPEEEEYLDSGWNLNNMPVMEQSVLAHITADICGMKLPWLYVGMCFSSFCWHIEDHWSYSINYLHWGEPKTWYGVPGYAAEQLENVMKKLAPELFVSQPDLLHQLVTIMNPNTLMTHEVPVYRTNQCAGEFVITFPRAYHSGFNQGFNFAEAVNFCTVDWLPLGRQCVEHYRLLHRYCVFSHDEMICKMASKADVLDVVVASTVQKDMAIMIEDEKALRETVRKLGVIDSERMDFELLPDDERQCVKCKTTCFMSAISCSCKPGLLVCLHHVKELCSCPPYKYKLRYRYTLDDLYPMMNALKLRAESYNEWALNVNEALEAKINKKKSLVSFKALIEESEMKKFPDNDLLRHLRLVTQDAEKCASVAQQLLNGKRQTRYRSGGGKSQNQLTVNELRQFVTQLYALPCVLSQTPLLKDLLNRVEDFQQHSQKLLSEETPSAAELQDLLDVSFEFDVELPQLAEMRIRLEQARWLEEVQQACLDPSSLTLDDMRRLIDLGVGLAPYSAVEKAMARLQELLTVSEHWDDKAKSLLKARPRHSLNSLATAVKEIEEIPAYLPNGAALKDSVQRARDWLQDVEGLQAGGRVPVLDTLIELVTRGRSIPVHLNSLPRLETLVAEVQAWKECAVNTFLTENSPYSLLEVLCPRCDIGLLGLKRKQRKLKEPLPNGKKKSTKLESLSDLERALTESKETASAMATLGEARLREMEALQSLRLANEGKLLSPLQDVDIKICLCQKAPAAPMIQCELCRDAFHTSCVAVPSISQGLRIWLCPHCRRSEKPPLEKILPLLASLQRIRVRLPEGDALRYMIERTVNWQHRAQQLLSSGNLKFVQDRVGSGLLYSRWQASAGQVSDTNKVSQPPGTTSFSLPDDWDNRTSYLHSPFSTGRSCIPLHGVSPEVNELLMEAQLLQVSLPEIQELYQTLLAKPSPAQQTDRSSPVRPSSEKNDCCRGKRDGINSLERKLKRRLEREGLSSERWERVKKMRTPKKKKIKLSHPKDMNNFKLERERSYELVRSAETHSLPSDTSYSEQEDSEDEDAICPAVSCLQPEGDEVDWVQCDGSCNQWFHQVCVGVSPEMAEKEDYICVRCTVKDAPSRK

Row | IC50 [nM] | SMILES
1 | 100 to 500 | O=C(O)c1ccnc(-c2nc3ccccc3n2Cc2ccc(Cl)cc2)c1 [Example 1]
2 | ≤ 100 | COc1ccc(Cn2c(-c3cc(C(=O)O)ccn3)nc3ccccc32)cc1 [Example 2]
3 | 100 to 500 | COc1ccc(CCn2c(-c3cc(C(=O)O)ccn3)nc3ccccc32)cc1 [Example 3]
4 | ≤ 100 | COc1ccc(-n2c(-c3cc(C(=O)O)ccn3)nc3ccccc32)cc1 [Example 4]
5 | > 500 | COc1cc(C)ccc1CCn1ccnc1-c1cc(C(=O)O)ccn1 [Example 5]
6 | 100 to 500 | COc1cc(Cl)ccc1CCn1ccnc1-c1cc(C(=O)O)ccn1 [Example 6]
7 | 100 to 500 | Cc1cc(Cl)ccc1CCn1ccnc1-c1cc(C(=O)O)ccn1 [Example 7]
8 | > 500 | O=C(O)c1ccnc(-c2nccn2CCc2ccc(Cl)cc2)c1 [Example 8]
9 | 100 to 500 | N#Cc1ccccc1Cn1ccnc1-c1cc(C(=O)O)ccn1 [Example 9]
10 | 100 to 500 | O=C(O)c1ccnc(-c2nccn2Cc2ccc(Cl)cc2)c1 [Example 10]
11 | > 500 | CCN1CCN(c2ccc(Cn3ccnc3-c3cc(C(=O)O)ccn3)c3c2CCCC3)CC1 [Example 11]
12 | ≤ 100 | Cn1c(-c2ccccn2)cnc1-c1cc(C(=O)O)ccn1 [Example 12]
13 | > 500 | Cn1cc(-c2ccccn2)nc1-c1cc(C(=O)O)ccn1 [Example 13]
14 | 100 to 500 | O=C(O)c1ccnc(-c2ncc(CO)n2CCc2ccc(Cl)cc2)c1 [Example 14]
15 | ≤ 100 | CNC(=O)c1cnc(-c2cc(C(=O)O)ccn2)n1CCc1ccc(Cl)cc1 [Example 15]
16 | 100 to 500 | Cc1ccc(-n2ccnc2-c2cc(C(=O)O)ccn2)cc1 [Example 16]
17 | 100 to 500 | CN(Cc1ccc(F)cc1)Cc1ccc2nc(-c3cc(C(=O)O)ccn3)n(CCc3ccc(F)cc3)c2c1 [Example 28]
18 | ≤ 100 | O=C(O)c1ccnc(-c2nc3ccccc3n2CC2CCOc3ccccc32)c1 (stereo not drawn) [Example 29]
19 | 100 to 500 | O=C(O)c1ccnc(-c2ncc(-c3ccccn3)n2CCc2ccc(Cl)cc2)c1 [Example 31]
20 | 100 to 500 | O=C(O)c1ccnc(-c2ncc(-c3ccccn3)n2Cc2ccc(Oc3ccccc3)cc2)c1 [Example 34]

Row | IC50 [nM] | SMILES
21 | > 500 | COc1ccc(N(C)c2ccc(Cn3ccnc3-c3cc(C(=O)O)ccn3)cc2)cc1 [Example 36]
22 | 100 to 500 | CCc1ccc(N(C)c2ccc3c(c2)OCCC3Cn2ccnc2-c2cc(C(=O)O)ccn2)cc1 (stereo not drawn) [Example 42]
23 | ≤ 100 | CN(CCc1cnc(-c2cc(C(=O)O)ccn2)n1CCc1ccc(F)cc1)Cc1ccc(Cl)cc1 [Example 47]
24 | ≤ 100 | O=C(O)c1ccnc(-c2ncc(CCN3CCC(c4cc(Cl)cc(Cl)c4)CC3)n2CCc2ccc(F)cc2)c1 [Example 51]
25 | 100 to 500 | COc1cc(CN2CCC(NCCc3ccccc3)CC2)ccc1Cn1ccnc1-c1cc(C(=O)O)ccn1 [Example 54]
26 | 100 to 500 | CN(Cc1ccccn1)Cc1cnc(-c2cc(C(=O)O)ccn2)n1CCc1ccc(F)cc1 [Example 62]
27 | 100 to 500 | CN(Cc1ccc(N2CCOCC2)cc1)Cc1cnc(-c2cc(C(=O)O)ccn2)n1CCc1ccc(F)cc1 [Example 66]
28 | ≤ 100 | CN(Cc1cnc(-c2cc(C(=O)O)ccn2)n1CCc1ccc(F)cc1)C1CCN(Cc2ccccc2)CC1 [Example 68]
29 | 100 to 500 | O=C(O)c1ccnc(-c2ncc(CN(CCO)Cc3ccccc3)n2CCc2ccc(F)cc2)c1 [Example 70]
30 | ≤ 100 | CN1CCN(Cc2cnc(-c3cc(C(=O)O)ccn3)n2CCc2ccc(F)cc2)C(c2ccccc2)C1 (stereo not drawn) [Example 72]
31 | ≤ 100 | O=C(O)c1ccnc(-c2ncc(CN3CCC(OC4CCCCC4)CC3)n2CCc2ccc(F)cc2)c1 [Example 74]
32 | ≤ 100 | O=C(O)c1ccnc(-c2ncc(CN3CCN(CCCOc4ccccc4)CC3)n2CCc2ccc(F)cc2)c1 [Example 76]
33 | ≤ 100 | O=C(O)c1ccnc(-c2ncc(CN3CCN(Cc4ccc(C(F)(F)F)cc4)CC3)n2CCc2ccc(F)cc2)c1 [Example 78]
34 | ≤ 100 | O=C(O)c1ccnc(-c2ncc(CN3CCCN(c4ccccc4)CC3)n2CCc2ccc(F)cc2)c1 [Example 82]
35 | ≤ 100 | O=C(O)c1ccnc(-c2ncc(CN3CCc4c([nH]c5ccccc45)C3)n2CCc2ccc(F)cc2)c1 [Example 86]
36 | > 500 | CCc1ccc(N(C)c2ccc3c(c2)OCCC3Cn2c(-c3cc(C(=O)O)ccn3)nc3ccccc32)cc1 (stereo not drawn) [Example 88]
37 | > 500 | COc1ccc(N(C)c2ccc3c(c2)OCCC3Cn2c(-c3cc(C(=O)O)ccn3)nc3ccccc32)cc1 (stereo not drawn) [Example 90]
38 | ≤ 100 | CN1CCN(Cc2cnc(-c3cc(C(=O)O)ccn3)n2C)C(c2ccccc2)C1 (stereo not drawn) [Example 101]
39 | ≤ 100 | Cn1c(CN2CCN(Cc3ccc(C(F)(F)F)cc3)CC2)cnc1-c1cc(C(=O)O)ccn1 [Example 107]
